Results as given in US20230151025A1, “SUBSTITUTED THIAZOLOPYRIDINES, SALTS THEREOF AND THEIR USE AS HERBICIDALLY ACTIVE SUBSTANCES” (Bayer Aktiengesellschaft, priority 2020, published 2023).

Columns and labels:
Assay type in all cases: in vivo
[1] = tested on: Veronica persica (VERPE); test: Herbicidal post-emergence action (B), 1280 g/ha
How it was run: (§1)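 Post-emergence greenhouse test: weeds in sandy loam treated at the one-leaf stage, 2 to 3 weeks after sowing, with WP or EC formulations plus 0.5% additive at 600 l/ha water. Visual activity versus untreated controls after about 3 weeks (100% = dead, 0% = like control).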

[2] = tested on: Poa annua (POAAN); test: Herbicidal post-emergence action (B), 1280 g/ha; details: rated visually after about 3 weeks vs untreated controls
How it was run: as §1

[3] = tested on: Setaria viridis (SETVI); test: Herbicidal post-emergence action (B), 1280 g/ha; details: rated visually after about 3 weeks vs untreated controls
How it was run: as §1

[4] = tested on: Kochia scoparia (KCHSC; Bassia scoparia); test: Herbicidal post-emergence action (B), 1280 g/ha
How it was run: as §1

[5] = tested on: Lolium rigidum (LOLRI); test: Herbicidal post-emergence action (B), 1280 g/ha; details: one-leaf stage, rated after about 3 weeks vs untreated controls, 100% activity = the plants have died, 0% = like control plants
How it was run: as §1

[6] = tested on: Abutilon theophrasti (ABUTH); test: Herbicidal post-emergence action (B), 1280 g/ha; details: rated visually after about 3 weeks vs untreated controls
How it was run: as §1

[7] = tested on: Digitaria sanguinalis (DIGSA); test: Herbicidal post-emergence action (B), 1280 g/ha; details: rated visually after about 3 weeks vs untreated controls
How it was run: as §1

[8] = tested on: Echinochloa crus-galli (ECHCG); test: Herbicidal post-emergence action (B), 1280 g/ha; details: rated visually after about 3 weeks vs untreated controls
How it was run: as §1

[9] = tested on: Amaranthus retroflexus (AMARE); test: Herbicidal post-emergence action (B), 1280 g/ha; details: rated visually after about 3 weeks vs untreated controls
How it was run: as §1

[10] = tested on: Stellaria media (STEME); test: Herbicidal post-emergence action (B), 1280 g/ha
How it was run: as §1

[11] = tested on: Alopecurus myosuroides (ALOMY); test: Herbicidal post-emergence action (B), 1280 g/ha; details: rated visually after about 3 weeks vs untreated controls
How it was run: as §1

[12] = tested on: Veronica persica (VERPE); test: Herbicidal pre-emergence action (C), 320 g/ha; details: ca. 3 weeks
How it was run: (§2)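 Visual percent damage relative to untreated controls was scored about 3 weeks after treatment, where 100% means plants died off and 0% means like controls. Compounds, as WP or EC with 0.5% additive, were applied in 600 l water/ha to the soil covering sown seeds.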

[13] = tested on: Setaria viridis (SETVI); test: Herbicidal pre-emergence action (C), 320 g/ha; details: ca. 3 weeks
How it was run: as §2

[14] = tested on: Lolium rigidum (LOLRI); test: Herbicidal pre-emergence action (C), 320 g/ha; details: ca. 3 weeks
How it was run: as §2

[15] = tested on: Echinochloa crus-galli (ECHCG); test: Herbicidal pre-emergence action (C), 320 g/ha; details: ca. 3 weeks
How it was run: as §2

[16] = tested on: Amaranthus retroflexus (AMARE); test: Herbicidal pre-emergence action (C), 320 g/ha; details: ca. 3 weeks
How it was run: as §2

[17] = tested on: Alopecurus myosuroides (ALOMY); test: Herbicidal pre-emergence action (C), 320 g/ha; details: ca. 3 weeks
How it was run: as §2

[18] = tested on: Digitaria sanguinalis (DIGSA); test: Herbicidal pre-emergence action (C), 320 g/ha; details: ca. 3 weeks
How it was run: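 Weed and crop seeds sown in sandy loam; WP or EC formulations applied pre-emergence to the soil surface as aqueous suspension/emulsion with 0.5% additive at 600 l water/ha. Greenhouse-grown under optimum conditions; damage visually scored after ca. 3 weeks versus untreated controls (0% = as control, 100% = plants dead).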

[19] = tested on: Veronica persica (VERPE); test: Herbicidal pre-emergence action (A), 1280 g/ha; details: visual grading after ca. 3 weeks vs untreated controls
How it was run: (§3)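 Pre-emergence greenhouse test: seeds sown in sandy loam pots, WP or EC formulations sprayed onto covering soil as aqueous suspension/emulsion with 0.5% additive at 600 l water/ha. Damage graded visually after ca. 3 weeks versus untreated controls, 0% = as control, 100% = plants dead.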

[20] = tested on: Poa annua (POAAN); test: Herbicidal pre-emergence action (A), 1280 g/ha; details: visual grading after ca. 3 weeks vs untreated controls, 100% = plants have died off, 0% = as control plants
How it was run: as §3

[21] = tested on: Setaria viridis (SETVI); test: Herbicidal pre-emergence action (A), 1280 g/ha; details: visual grading after ca. 3 weeks vs untreated controls
How it was run: as §3

[22] = tested on: Abutilon theophrasti (ABUTH); test: Herbicidal pre-emergence action (A), 1280 g/ha; details: visual grading after ca. 3 weeks vs untreated controls, 100% = plants have died off, 0% = as control plants
How it was run: as §3

[23] = tested on: Digitaria sanguinalis (DIGSA); test: Herbicidal pre-emergence action (A), 1280 g/ha; details: visual grading after ca. 3 weeks vs untreated controls, 100% = plants have died off, 0% = as control plants
How it was run: as §3

[24] = tested on: Echinochloa crus-galli (ECHCG); test: Herbicidal pre-emergence action (A), 1280 g/ha; details: visual grading after ca. 3 weeks vs untreated controls, 100% = plants have died off, 0% = as control plants
How it was run: as §3

[25] = tested on: Amaranthus retroflexus (AMARE); test: Herbicidal pre-emergence action (A), 1280 g/ha; details: visual grading after ca. 3 weeks vs untreated controls
How it was run: as §3

Structure (SMILES)	herbicidal effect VERPE [1] [%]	herbicidal activity POAAN [2] [%]	herbicidal activity SETVI [3] [%]	herbicidal effect KCHSC [4] [%]	LOLRI, activity rated visually (%) [5] [%]	herbicidal activity ABUTH [6] [%]	herbicidal activity DIGSA [7] [%]	herbicidal activity ECHCG [8] [%]	herbicidal activity AMARE [9] [%]	herbicidal effect STEME [10] [%]	herbicidal activity ALOMY [11] [%]	herbicidal effect VERPE [12] [%]	herbicidal effect SETVI [13] [%]	herbicidal effect LOLRI [14] [%]	herbicidal effect ECHCG [15] [%]	herbicidal effect AMARE [16] [%]	herbicidal effect ALOMY [17] [%]	herbicidal effect DIGSA [18] [%]	herbicidal effect VERPE [19] [%]	POAAN, herbicidal effect in percent (%) [20] [%]	also measured
CCc1cc2scnc2nc1-c1ccccc1C [Example I-093]	100	100	100	100	100	100	100	100	100	100	100	90	100	100	100	90	100	100	100	100	herbicidal effect SETVI [21]: 100%; ABUTH, herbicidal effect in percent (%) [22]: 90%; DIGSA, herbicidal effect in percent (%) [23]: 100%; ECHCG, herbicidal effect in percent (%) [24]: 90%; herbicidal effect AMARE [25]: 90%
CCc1cc2scnc2nc1-c1ccccc1F [Example I-023]	90	100	100	90	100	100	100	100	100	100	100	90	100	100	100	80	100	100	100	100	herbicidal effect SETVI [21]: 100%; ABUTH, herbicidal effect in percent (%) [22]: 90%; DIGSA, herbicidal effect in percent (%) [23]: 100%; ECHCG, herbicidal effect in percent (%) [24]: 100%; herbicidal effect AMARE [25]: 100%
